Experiment: xn = mol fraction of the nth substance listed
Details: for surface tension liquid-gas: Drop volume; for viscosity / mass density: 100 kPa, Liquid; for viscosity: Concentric cylinders viscometry; for mass density: Vibrating tube method

CCC1CCCCC1 [ethylcyclohexane] + CC(C)CC(C)(C)C
Details | mass density [kg/m3] | surface tension liquid-gas [mN/m] | viscosity [mPa·s]
293.15 K, x1 = 0.1 | 700.76 | 19.51 | 0.54
293.15 K, x1 = 0.1999 | – | 19.99 | –
293.15 K, x1 = 0.2 | 709.8 | – | 0.565
293.15 K, x1 = 0.3 | – | 20.57 | –
293.15 K, x1 = 0.3003 | 719.07 | – | 0.591
293.15 K, x1 = 0.3997 | 728.38 | – | 0.619
293.15 K, x1 = 0.4 | – | 21.13 | –
293.15 K, x1 = 0.5 | – | 21.74 | –
293.15 K, x1 = 0.5002 | 737.96 | – | 0.65
293.15 K, x1 = 0.6001 | – | 22.44 | –
293.15 K, x1 = 0.6005 | 747.68 | – | 0.684
293.15 K, x1 = 0.7002 | 757.5 | – | 0.719
293.15 K, x1 = 0.7004 | – | 23.16 | –
293.15 K, x1 = 0.8001 | – | 24 | –
293.15 K, x1 = 0.8003 | 767.49 | – | 0.758
293.15 K, x1 = 0.8994 | – | 24.75 | –
293.15 K, x1 = 0.8997 | 777.58 | – | 0.801
293.15 K, x1 = 1 | 787.98 | 25.47 | 0.848
298.15 K, x1 = 0.1 | 696.71 | 18.91 | 0.513
298.15 K, x1 = 0.1999 | – | 19.38 | –
298.15 K, x1 = 0.2 | 705.71 | – | 0.536
298.15 K, x1 = 0.3 | – | 19.88 | –
298.15 K, x1 = 0.3003 | 715.02 | – | 0.56
298.15 K, x1 = 0.3997 | 724.34 | – | 0.586
298.15 K, x1 = 0.4 | – | 20.4 | –
298.15 K, x1 = 0.5 | – | 21.01 | –
298.15 K, x1 = 0.5002 | 733.9 | – | 0.613
298.15 K, x1 = 0.6001 | – | 21.67 | –
298.15 K, x1 = 0.6005 | 743.64 | – | 0.644
298.15 K, x1 = 0.7002 | 753.47 | – | 0.677
298.15 K, x1 = 0.7004 | – | 22.45 | –
298.15 K, x1 = 0.8001 | – | 23.23 | –
298.15 K, x1 = 0.8003 | 763.46 | – | 0.712
298.15 K, x1 = 0.8994 | – | 24 | –
298.15 K, x1 = 0.8997 | 773.57 | – | 0.751
298.15 K, x1 = 1 | 783.97 | 24.76 | 0.793
303.15 K, x1 = 0.1 | 692.57 | 18.49 | 0.489
303.15 K, x1 = 0.2 | 701.62 | 18.96 | 0.509
303.15 K, x1 = 0.3003 | 710.92 | 19.61 | 0.531
303.15 K, x1 = 0.3997 | 720.25 | 19.97 | 0.555
303.15 K, x1 = 0.5002 | 729.84 | 20.62 | 0.581
303.15 K, x1 = 0.6005 | 739.57 | 21.24 | 0.609
303.15 K, x1 = 0.7002 | 749.4 | 22.12 | 0.638
303.15 K, x1 = 0.8003 | 759.41 | 22.89 | 0.671
303.15 K, x1 = 0.8997 | 769.52 | 23.75 | 0.706
303.15 K, x1 = 1 | 779.93 | 24.55 | 0.745
308.15 K, x1 = 0.1 | 688.43 | 18 | 0.466
308.15 K, x1 = 0.1999 | – | 18.45 | –
308.15 K, x1 = 0.2 | 697.49 | – | 0.485
308.15 K, x1 = 0.3 | – | 18.91 | –
308.15 K, x1 = 0.3003 | 706.8 | – | 0.505
308.15 K, x1 = 0.3997 | 716.14 | – | 0.527
308.15 K, x1 = 0.4 | – | 19.39 | –
308.15 K, x1 = 0.5 | – | 19.98 | –
308.15 K, x1 = 0.5002 | 725.74 | – | 0.55
308.15 K, x1 = 0.6001 | – | 20.65 | –
308.15 K, x1 = 0.6005 | 735.47 | – | 0.577
308.15 K, x1 = 0.7002 | 745.32 | – | 0.604
308.15 K, x1 = 0.7004 | – | 21.4 | –
308.15 K, x1 = 0.8001 | – | 22.11 | –
308.15 K, x1 = 0.8003 | 755.35 | – | 0.634
308.15 K, x1 = 0.8994 | – | 22.94 | –
308.15 K, x1 = 0.8997 | 765.46 | – | 0.666
308.15 K, x1 = 1 | 775.88 | 23.74 | 0.702
313.15 K, x1 = 0.1 | – | – | 0.446
313.15 K, x1 = 0.1012 | 684.26 | – | –
313.15 K, x1 = 0.2 | – | – | 0.464
313.15 K, x1 = 0.2003 | 693.35 | – | –
313.15 K, x1 = 0.3001 | 702.64 | – | –
313.15 K, x1 = 0.3003 | – | – | 0.482
313.15 K, x1 = 0.3997 | – | – | 0.503
313.15 K, x1 = 0.4019 | 712.01 | – | –
313.15 K, x1 = 0.5002 | – | – | 0.524
313.15 K, x1 = 0.5008 | 721.61 | – | –
313.15 K, x1 = 0.6 | 731.36 | – | –
313.15 K, x1 = 0.6005 | – | – | 0.548
313.15 K, x1 = 0.6998 | 741.23 | – | –
313.15 K, x1 = 0.7002 | – | – | 0.573
313.15 K, x1 = 0.8 | 751.26 | – | –
313.15 K, x1 = 0.8003 | – | – | 0.601
313.15 K, x1 = 0.8997 | – | – | 0.63
313.15 K, x1 = 0.9 | 761.39 | – | –
313.15 K, x1 = 1 | 771.82 | – | 0.663
318.15 K, x1 = 0.1 | – | – | 0.429
318.15 K, x1 = 0.1012 | 680.05 | – | –
318.15 K, x1 = 0.2 | – | – | 0.445
318.15 K, x1 = 0.2003 | 689.16 | – | –
318.15 K, x1 = 0.3001 | 698.38 | – | –
318.15 K, x1 = 0.3003 | – | – | 0.461
318.15 K, x1 = 0.3997 | – | – | 0.481
318.15 K, x1 = 0.4019 | 707.8 | – | –
318.15 K, x1 = 0.5002 | – | – | 0.5
318.15 K, x1 = 0.5008 | 717.38 | – | –
318.15 K, x1 = 0.6 | 727.09 | – | –
318.15 K, x1 = 0.6005 | – | – | 0.522
318.15 K, x1 = 0.6998 | 737.02 | – | –
318.15 K, x1 = 0.7002 | – | – | 0.548
318.15 K, x1 = 0.8 | 747.05 | – | –
318.15 K, x1 = 0.8003 | – | – | 0.573
318.15 K, x1 = 0.8997 | – | – | 0.598
318.15 K, x1 = 0.9 | 757.21 | – | –
318.15 K, x1 = 1 | 767.69 | – | 0.628
323.15 K, x1 = 0.1 | – | – | 0.412
323.15 K, x1 = 0.1012 | 675.82 | – | –
323.15 K, x1 = 0.2 | – | – | 0.427
323.15 K, x1 = 0.2003 | 684.95 | – | –
323.15 K, x1 = 0.3001 | 694.19 | – | –
323.15 K, x1 = 0.3003 | – | – | 0.442
323.15 K, x1 = 0.3997 | – | – | 0.46
323.15 K, x1 = 0.4019 | 703.63 | – | –
323.15 K, x1 = 0.5002 | – | – | 0.478
323.15 K, x1 = 0.5008 | 713.22 | – | –
323.15 K, x1 = 0.6 | 722.95 | – | –
323.15 K, x1 = 0.6005 | – | – | 0.499
323.15 K, x1 = 0.6998 | 732.88 | – | –
323.15 K, x1 = 0.7002 | – | – | 0.522
323.15 K, x1 = 0.8 | 742.93 | – | –
323.15 K, x1 = 0.8003 | – | – | 0.546
323.15 K, x1 = 0.8997 | – | – | 0.569
323.15 K, x1 = 0.9 | 753.1 | – | –
323.15 K, x1 = 1 | 763.59 | – | 0.597
333.15 K, x1 = 0.1 | – | – | 0.383
333.15 K, x1 = 0.1012 | 667.27 | – | –
333.15 K, x1 = 0.2 | – | – | 0.396
333.15 K, x1 = 0.2003 | 676.43 | – | –
333.15 K, x1 = 0.3001 | 685.73 | – | –
333.15 K, x1 = 0.3003 | – | – | 0.409
333.15 K, x1 = 0.3997 | – | – | 0.425
333.15 K, x1 = 0.4019 | 695.2 | – | –
333.15 K, x1 = 0.5002 | – | – | 0.44
333.15 K, x1 = 0.5008 | 704.82 | – | –
333.15 K, x1 = 0.6 | 714.58 | – | –
333.15 K, x1 = 0.6005 | – | – | 0.457
333.15 K, x1 = 0.6998 | 724.55 | – | –
333.15 K, x1 = 0.7002 | – | – | 0.478
333.15 K, x1 = 0.8 | 734.62 | – | –
333.15 K, x1 = 0.8003 | – | – | 0.498
333.15 K, x1 = 0.8997 | – | – | 0.518
333.15 K, x1 = 0.9 | 744.81 | – | –
333.15 K, x1 = 1 | 755.35 | – | 0.541
343.15 K, x1 = 0.1 | – | – | 0.358
343.15 K, x1 = 0.1012 | 658.57 | – | –
343.15 K, x1 = 0.2 | – | – | 0.369
343.15 K, x1 = 0.2003 | 667.78 | – | –
343.15 K, x1 = 0.3001 | 677.13 | – | –
343.15 K, x1 = 0.3003 | – | – | 0.38
343.15 K, x1 = 0.3997 | – | – | 0.395
343.15 K, x1 = 0.4019 | 686.64 | – | –
343.15 K, x1 = 0.5002 | – | – | 0.408
343.15 K, x1 = 0.5008 | 696.31 | – | –
343.15 K, x1 = 0.6 | 706.12 | – | –
343.15 K, x1 = 0.6005 | – | – | 0.423
343.15 K, x1 = 0.6998 | 716.12 | – | –
343.15 K, x1 = 0.7002 | – | – | 0.441
343.15 K, x1 = 0.8 | 726.23 | – | –
343.15 K, x1 = 0.8003 | – | – | 0.458
343.15 K, x1 = 0.8997 | – | – | 0.476
343.15 K, x1 = 0.9 | 736.46 | – | –
343.15 K, x1 = 1 | 747.03 | – | 0.496

Reference: the NIST ThermoML archive (doi:10.1021/acs.jced.5b00105)
